Data: ChEMBL document CHEMBL6103565, “Current strategies in design and synthesis of antifungals hybrid and chimeric diazine derivatives” (Bioorg Med Chem, 2025)
≈ marks a conversion by molar mass, not a printed value.

Tests used:
[1] = test system: Candida albicans; assay: Antifungal activity against Candida albicans MTCC 227 assessed as reduction in microbial growth after 48 hrs by broth dilution method; assay type: functional
[2] = test system: Candida albicans; assay: Antifungal activity against Candida albicans MTCC 227 by disc diffusion method; assay type: functional, organism-based
[3] = test system: Aspergillus clavatus; assay: Antifungal activity against Aspergillus […] MTCC 1323 assessed as reduction in microbial growth after 48 hrs by broth dilution method; assay type: functional
[4] = test system: Aspergillus niger; assay: Antifungal activity against Aspergillus niger MTCC 282 assessed as reduction in microbial growth after 48 hrs by broth dilution method; assay type: functional
[5] = test system: Aspergillus niger; assay: Antifungal activity against Aspergillus niger MTCC 282 by disc diffusion method; assay type: functional, organism-based
[6] = test system: Candida tropicalis; assay: Antifungal activity against Candida tropicalis ATCC 750 assessed as reduction in microbial growth; assay type: functional
[7] = test system: Candida albicans; assay: Antifungal activity against Candida albicans ATCC 90028 assessed as diameter of zone of inhibition; assay type: functional
[8] = test system: Candida albicans; assay: Antifungal activity against Candida albicans ATCC 90028 assessed as reduction in microbial growth; assay type: functional
[9] = test system: Nakaseomyces glabratus; assay: Antifungal activity against Candida glabrata ATCC 90030 assessed as reduction in microbial growth; assay type: functional
[10] = test system: Nakaseomyces glabratus; assay: Antifungal activity against Candida glabrata ATCC 90030 assessed as diameter of zone of inhibition; assay type: functional
[11] = test system: Candida tropicalis; assay: Antifungal activity against Candida tropicalis ATCC 750 assessed as diameter of zone of inhibition; assay type: functional
[12] = test system: Sclerotinia sclerotiorum; assay: Fungicidal activity against Sclerotinia sclerotiorum assessed as fungal inhibitory rate at 200 ug/ml relative to control; assay type: functional
[13] = test system: Fusarium graminearum; assay: Fungicidal activity against Gibberella zeae assessed as fungal inhibitory rate at 200 ug/ml relative to control; assay type: functional
[14] = test system: Botryosphaeria dothidea; assay: Fungicidal activity against Botryosphaeria dothidea assessed as fungal inhibitory rate at 200 ug/ml relative to control; assay type: functional

In the case of `CC(=O)N1N=C(C2=C(C)NC(=O)NC2c2ccc(F)cc2)OC1c1ccc([N+](=O)[O-])cc1` (centres undefined), the MIC [1] is reported as 100 µg/mL, the EC50 [2] is reported as 0.14 µg/mL (≈ 0.319 µM) and the MIC [3] is reported as 50 µg/mL. It also gave an MIC [4] of 50 µg/mL and an EC50 [5] of 0.14 µg/mL (≈ 0.319 µM).
For `Cc1ccc(C2C3=C(N=C4SC=CN42)[C@@]2(C)CC[C@H]4[C@@H](CC=C5C[C@@H](O)CC[C@@]54C)[C@@H]2C3)cc1` (some centres undefined), the MIC [6] was over 1000 µg/mL, the “inhibition zone (IZ)” value [7] was 13 mm and the MIC [8] was 700 µg/mL. For the same molecule, the MIC [9] was over 1000 µg/mL, the “inhibition zone (IZ)” value [10] was 15 mm and the “inhibition zone (IZ)” value [11] was 15 mm.
With `Cc1ncc(NC(=O)c2cc(Cl)nn2-c2ncccc2Cl)c(-c2noc(C)n2)n1` the inhibition at 200 µg/mL [12] was 54.1%, the inhibition at 200 µg/mL [13] was 54.9% and the inhibition at 200 µg/mL [14] was 85.9%.
